“And” between values parts separate entries of the source, which are not always exact repeats. Identical values can stand only once. Like-named read-outs stand apart in the source and are kept apart here.
Tests used:
[1] = Time to dissolution of nitrification inhibitor coated with urease formulation; assay type: physicochemical; conditions: UAN 30
Excerpt: • 1. In a 4 oz. glass jar add 97 grams of either Deionized (DI) Water or UAN 30. • 2. Add a ¾ inch magnetic stir bar and place on a Corning/Model PC-420 Heater/Stirrer and set stirring speed at #7. • 3. Charge 3 grams of a nitrification inhibitor coated or uncoated and start stop watch. • 4. Visually determine the point at which all particles of the nitrification inhibitor have dissolved and record this time as time to dissolution.

[2] = Thermal Stability of NBPT (oven exposure, weight loss and HPLC); assay type: physicochemical; conditions: for % NBPT present by LC/UV % w/w: single determination
Method: One of the advantages of this invention is the application, at moderate temperatures, of thermally sensitive urease inhibitor onto the surfaces of urea. Moderate temperatures are defined as a range of about 20-70° C. Testing procedures were established to exactly weigh samples of approximately 1 gram of NBPT in an aluminum pan and expose them to different temperatures in an oven over varying amounts of time. The initial weight of NBPT in the pan was compared to the final weight of sample in the pan. The % NBPT was then determined by HPLC of the residual from the final weight pan by the following procedure:
1. Crush a portion of sample (˜5 g) using mortar and pestle.
2. Weigh about a 100 mg sample, in duplicate, and add to separate 10 mL volumetric flasks.
3. Bring to volume of 10 ml volumetric flask with 50:50 ACN(Acetonitrile):H2O.
5. Transfer a portion through a Nylon 0.45 μm syringe filter into an HPLC vial.
6. Inject on LC/UV (15-μg/mL calibration standard).

[3] = tested on: nitrification of urea fertilizer; assay: University of Arkansas soil incubation trial, urea coated with N Bound; conditions: Urea without inhibitor
Method: To determine what minimum effective levels of DCD are required to meet acceptable levels of nitrification inhibition and to maximize performance versus inhibitor level, studies were performed at Auburn University, South Dakota State University and University of Arkansas. These studies were performed by coating urea with a liquid nitrification inhibitor product, trade name N Bound, which contained approximately 28% DCD. The application rates of N Bound on urea (Units are in quarts of N Bound/ton of urea) was varied to measure application level versus the conversion of urea to nitrate measured as mg NO3 extracted from the applied soil.
A trial conducted at University of Arkansas was designed to measure and compare the nitrate concentrations from the microbial activity on untreated urea and ureas coated with N Bound that had been applied to classified as a Calhoun silt loam (pH=7.4) at varying rates. The objective was to determine the minimum inhibitor application rate to achieve optimize nitrification inhibition.

[4] = Crush strength of coated urea granules; assay type: physicochemical; conditions: New Leader tester scale 1-10 (1 very poor), average of 10 runs
Excerpt: Crush strength is the minimum pressure required to crush a granule of urea. Crush strength is of concern during the application of urea and is a measure of the urea's expected broadcast distance. Crush strength is related to the maximum rotations per minute (rpm) for the spinner portion of the urea spreader. The higher the rpms of the spinner, the more distance the urea can be broadcasted. High rpms require high crush strength urea granules in order for the granules not to be pulverized to dust by the broadcast process.
In order for the coated granules of urea to be tested, they were first sifted through a series of screens to ensure that the urea granules to be tested were of similar particle size as the urea particle size has an impact on crush resistance. A mesh size of 320-400 was chosen as the urea particle size. A New Leader crushing strength tester was used utilizing a scale from 1-10 wherein a reading of 1 is rated very poor crush strength. The results in Table 14 are for coated urea stored at 25° C. and at 50° C. Also included in Table 14 is the weight percentage of DMSO of the composition of the coated urea.
However, it should be understood that a different method of applying example 86 to the surfaces of the urea granules might result in better coverage (e.g., atomization onto the granules). […]

[5] = tested on: urease enzyme
Method: The treated urea was prepared as follows:
• 1. Charging weight of urea as directed by Table 8 to a container. • 2. The urea was slowly agitated with overhead stirrer with U shaped agitator blade. • 3. The example was slowly dripped on the urea while mixing in the amount as directed by Table 8 (rate=3 quarts/ton of urea). • 4. […] The coated urea was placed in a jar and sealed.
• 1. In a 6″×9″ rectangular Tupperware sealable container with holes drilled on each end and sealed with tape charge 400 grams of West Texas Sandy Loam Soil and 100 grams of distilled water, mix thoroughly to a consistency of thick “mud” (% moisture should be between 30-40%). • 2. Calculate the surface area to be treated. • a. 6″×9.5″=sq in/1 44 sq in/sq ft=0.395 sq ft • b. 0.395 sq ft/43,560 sq ft/acre=0.0000091 acres • 3. Calculate amount of urea and treated urea to charge to the containers of soil • a. Application Rate: 400 pounds urea per acre • b. 400 lbs/acre/43560 sq ft/acre=0.009 lbs/sq ft×0.395 sq ft/container=0.0036 lbs/container×454 g/lb=1.65 grams urea per container. • c. Add 1.65 grams of urea and various treated ureas to each container • 4. Ammonia Volatilization Screening Test • a. Evenly distribute over the soil in each container 1.65 grams of example to be tested, • b. Seal container, • c. Take readings of ammonia volatilization of each container over a selected period of time as directed in Table 9, • i. Drager tube measurement • (1) Use Drager pump with 0-600 ppm (or range TBD) ammonia drager tube. • (2) At specified times, quickly remove the tape on one end of container and insert the drager tube/pump. • (3) Fully squeeze pump 20 times allowing enough time for pump to fully inflate between each squeeze and then remove the tube from the container and read. • (4) Open container lid and vent the remaining ammonia gas out of the container and reseal. • (5) Repeat procedure at next designated time.

N#CN=C(N)N [DCD untreated, Dicyandiamide]
Initial Appearance ([1]; 3%): clear
Time to Dissolution ([1]; 3 grams in 97 grams (3%)): 1740 s

CCCCNP(N)(N)=S [NBPT, N-(n-butyl)thiophosphoric triamide]
% NBPT present by LC/UV Average ([2]; 50° C./3600 sec): 99.38%
% Weight Loss Average ([2]; 50° C./3600 sec): 0.0%
% NBPT present by LC/UV % w/w ([2]; 50° C./3600 sec): 99.17% and 99.58%
% NBPT present by LC/UV Average ([2]; 70° C./900 sec): 99.38%
% Weight Loss Average ([2]; 70° C./900 sec): 0.26%
% NBPT present by LC/UV % w/w ([2]; 70° C./900 sec): 99.53% and 99.23%
% NBPT present by LC/UV Average ([2]; 100° C./300 sec): 22.92%
% Weight Loss Average ([2]; 100° C./300 sec): 10.36%
% NBPT present by LC/UV % w/w ([2]; 100° C./300 sec): 23.59% and 22.25%
% NBPT present by LC/UV Average ([2]; 120° C./180 sec): 4.67%
% Weight Loss Average ([2]; 120° C./180 sec): 13.55%
% NBPT present by LC/UV % w/w ([2]; 120° C./180 sec): 4.79% and 4.54%
% NBPT present by LC/UV Average ([2]; 140° C./90 sec): 3.84%
% Weight Loss Average ([2]; 140° C./90 sec): 13.42%
% NBPT present by LC/UV % w/w ([2]; 140° C./90 sec): 3.68% and 3.99%
degradation (HPLC) ([2]; 15 minutes at 70° C.): no degradation
% NBPT present by LC/UV Average ([2]; NBPT std, not heated): 99.25%
% NBPT present by LC/UV % w/w ([2]; NBPT std, not heated): 99.35% and 99.16%
thermal stability (HPLC) ([2]; temperatures >100° C.): poor thermal stability

NC(N)=O [Urea]
Nitrate-N Concentration ([3]; Day 1, Calhoun silt loam): 113.4 mg NO3—N/kg soil
Nitrate-N Concentration ([3]; Day 3): 98.6 mg NO3—N/kg soil
Nitrate-N Concentration ([3]; Day 7): 151.6 mg NO3—N/kg soil
Nitrate-N Concentration ([3]; Day 14): 202.8 mg NO3—N/kg soil
Nitrate-N Concentration ([3]; Day 21): 221.2 mg NO3—N/kg soil
Nitrate-N Concentration ([3]; Day 28): 262.3 mg NO3—N/kg soil
Nitrate-N Concentration ([3]; Day 35): 255.3 mg NO3—N/kg soil
Crush Strength stored 24 hrs. @ 25 C. [4]: 5.4
Crush Strength stored 24 hrs. @ 50 C. [4]: 6.75
Ammonia Reading ([5]; 72 hours, 1.65 grams treated urea (3 quarts/ton) on West Texas Sandy Loam Soil): 220 ppm
Ammonia Reading ([5]; 144 hours): 475 ppm
Ammonia Reading ([5]; 264 hours): 460 ppm
